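Method: 48-hour compound exposure of cells in 96-well plates, five concentrations, linear interpolation of endpoints. The concentration for 50% growth inhibition is given as GI50. TGI is the concentration that stops growth completely.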
Assays:
Assay in all cases: inhibition of tumour cell growth, NCI panel, 48 h
UACC-257 melanoma = test system: UACC-257 melanoma
MALME-3M melanoma = test system: MALME-3M melanoma
UO-31 renal = test system: UO-31 renal
SK-MEL-2 melanoma = test system: SK-MEL-2 melanoma
SF-268 CNS = test system: SF-268 CNS
U251 CNS = test system: U251 CNS
CAKI-1 renal = test system: CAKI-1 renal
DU-145 prostate = test system: DU-145 prostate
NCI/ADR-RES ovarian = test system: NCI/ADR-RES ovarian

CN(C)CCC(CCN(C)C)=NO
TGI (UACC-257 melanoma): > 100 µM | TGI (MALME-3M melanoma): > 100 µM | TGI (UO-31 renal): > 100 µM | TGI (SK-MEL-2 melanoma): > 100 µM | TGI (SF-268 CNS): > 100 µM | TGI (U251 CNS): > 100 µM | TGI (CAKI-1 renal): > 100 µM

N#Cc1c(NC(=O)c2ccc(F)cc2)sc2c1CCCC2
GI50 (UACC-257 melanoma): > 25 µM | TGI (UACC-257 melanoma): > 25 µM | GI50 (MALME-3M melanoma): > 25 µM | TGI (MALME-3M melanoma): > 25 µM | GI50 (UO-31 renal): > 25 µM | TGI (UO-31 renal): > 25 µM | GI50 (SF-268 CNS): > 25 µM | TGI (SF-268 CNS): > 25 µM | GI50 (DU-145 prostate): > 25 µM | TGI (DU-145 prostate): > 25 µM | GI50 (NCI/ADR-RES ovarian): > 25 µM | TGI (NCI/ADR-RES ovarian): > 25 µM | GI50 (U251 CNS): > 25 µM | TGI (U251 CNS): > 25 µM | GI50 (CAKI-1 renal): > 25 µM | TGI (CAKI-1 renal): > 25 µM

Cc1cc(N2CCCCC2)nc(NC2CCCC(Nc3ccnc4cc(Cl)ccc34)C2)n1 (configuration not stated)
GI50 (UACC-257 melanoma): 1.92 µM | TGI (UACC-257 melanoma): 3.55 µM | GI50 (UO-31 renal): 1.2 µM | TGI (UO-31 renal): 2.48 µM | GI50 (DU-145 prostate): 1.45 µM | TGI (DU-145 prostate): 3.1 µM

CC(C)(C)c1cc(CCCCCCCC2(CCCCCCCc3cc(C(C)(C)C)cc(C(C)(C)C)c3)OC(COCCOCCCCCC#N)C(COCCOCCCCCC#N)O2)cc(C(C)(C)C)c1 (configuration not stated)
TGI (UACC-257 melanoma): > 100 µM | TGI (MALME-3M melanoma): > 100 µM | TGI (UO-31 renal): > 100 µM | TGI (SK-MEL-2 melanoma): > 100 µM | TGI (SF-268 CNS): > 100 µM | TGI (U251 CNS): > 100 µM | TGI (CAKI-1 renal): > 100 µM

O=C(OCCCl)C1OC(n2cc(F)c(=O)[nH]c2=O)CC1O (configuration not stated)
TGI (UACC-257 melanoma): > 100 µM | TGI (MALME-3M melanoma): > 100 µM | TGI (UO-31 renal): > 100 µM | TGI (SK-MEL-2 melanoma): > 100 µM | TGI (SF-268 CNS): > 100 µM | TGI (U251 CNS): > 100 µM

Cc1[nH]c2ccccc2c1CC/C(=N\Nc1ccccc1)c1ccccc1
TGI (UACC-257 melanoma): > 100 µM | TGI (MALME-3M melanoma): > 100 µM | TGI (UO-31 renal): > 100 µM | TGI (SK-MEL-2 melanoma): > 100 µM | TGI (U251 CNS): > 100 µM | TGI (CAKI-1 renal): > 100 µM

C[C@@H](NS(=O)(=O)c1ccc(NC(=O)c2ccccc2)cc1)C(=O)O
TGI (UACC-257 melanoma): > 100 µM | TGI (MALME-3M melanoma): > 100 µM | TGI (UO-31 renal): > 100 µM | TGI (SK-MEL-2 melanoma): > 100 µM | TGI (SF-268 CNS): > 100 µM | TGI (U251 CNS): > 100 µM | TGI (CAKI-1 renal): > 100 µM

O=C1C(=C([O-])c2ccccc2)C(=O)c2ccccc21.O=C1C(=C([O-])c2ccccc2)C(=O)c2ccccc21.[Mn+2]
GI50 (UACC-257 melanoma): 22.6 µM | TGI (UACC-257 melanoma): 48.4 µM | GI50 (MALME-3M melanoma): > 100 µM | TGI (MALME-3M melanoma): > 100 µM | GI50 (UO-31 renal): 43.9 µM | TGI (UO-31 renal): > 100 µM | GI50 (SK-MEL-2 melanoma): > 100 µM | TGI (SK-MEL-2 melanoma): > 100 µM | GI50 (CAKI-1 renal): > 100 µM | TGI (CAKI-1 renal): > 100 µM

O=C(NCCCl)Nc1cccnc1
TGI (UACC-257 melanoma): 72.2 µM | TGI (MALME-3M melanoma): 7.4 µM | TGI (UO-31 renal): 50.3 µM | TGI (SK-MEL-2 melanoma): > 100 µM | TGI (DU-145 prostate): 29.4 µM | TGI (NCI/ADR-RES ovarian): 47.7 µM | TGI (U251 CNS): > 100 µM | TGI (CAKI-1 renal): 36.1 µM

C=CC(=O)N1C[C@@H]2CCOc3c(Cl)c(-c4c(O)cccc4F)c(F)c4ncnc(c34)N2C[C@H]1C
GI50 (UACC-257 melanoma): 13 µM | TGI (UACC-257 melanoma): 30.3 µM | GI50 (MALME-3M melanoma): 10.8 µM | TGI (MALME-3M melanoma): 23.8 µM | GI50 (UO-31 renal): 12.3 µM | TGI (UO-31 renal): 25.3 µM | GI50 (SK-MEL-2 melanoma): 14 µM | TGI (SK-MEL-2 melanoma): 28.7 µM | GI50 (SF-268 CNS): 12.5 µM | TGI (SF-268 CNS): 29.1 µM | GI50 (DU-145 prostate): 10.5 µM | TGI (DU-145 prostate): 22.3 µM | GI50 (NCI/ADR-RES ovarian): 17.4 µM | TGI (NCI/ADR-RES ovarian): 62.6 µM | GI50 (U251 CNS): 15 µM | TGI (U251 CNS): 36.2 µM | GI50 (CAKI-1 renal): 2.67 µM | TGI (CAKI-1 renal): 19.4 µM

COc1cc([N+](=O)[O-])c(OC)cc1-c1nc2sc(C)cn2c1/C(N)=N/C(=N)N
GI50 (UACC-257 melanoma): 18.4 µM | TGI (UACC-257 melanoma): 67 µM | GI50 (MALME-3M melanoma): 13 µM | TGI (MALME-3M melanoma): 45.2 µM | GI50 (UO-31 renal): 38.3 µM | TGI (UO-31 renal): > 100 µM | GI50 (SF-268 CNS): 22 µM | TGI (SF-268 CNS): > 100 µM | GI50 (DU-145 prostate): 16.1 µM | TGI (DU-145 prostate): > 100 µM | GI50 (NCI/ADR-RES ovarian): > 100 µM | TGI (NCI/ADR-RES ovarian): > 100 µM | GI50 (U251 CNS): 6.49 µM | TGI (U251 CNS): > 100 µM | GI50 (CAKI-1 renal): > 100 µM | TGI (CAKI-1 renal): > 100 µM

C=CC(=O)NC(N)=NC#N
TGI (UACC-257 melanoma): 249 µM | TGI (MALME-3M melanoma): 303 µM | TGI (UO-31 renal): 333 µM | TGI (SF-268 CNS): 260 µM | TGI (U251 CNS): 296 µM | GI50 (CAKI-1 renal): 171 µM | TGI (CAKI-1 renal): 361 µM

Oc1ccc2ccccc2c1N=Nc1cc(Cl)ccc1Cl
TGI (UACC-257 melanoma): > 50 µM | TGI (MALME-3M melanoma): > 50 µM | TGI (UO-31 renal): > 50 µM | TGI (SK-MEL-2 melanoma): > 50 µM | TGI (SF-268 CNS): > 50 µM | TGI (NCI/ADR-RES ovarian): > 50 µM | TGI (U251 CNS): 22 µM | TGI (CAKI-1 renal): > 50 µM

COC(=O)[C@]12CC[C@@H](C)[C@H](C)[C@@H]1C1=CC[C@@H]3[C@@]4(C)C[C@@H](OC(=O)/C=C/c5ccccc5)[C@H](O)[C@@](C)(CO)[C@@H]4[C@H](O)C[C@@]3(C)[C@]1(C)CC2
GI50 (MALME-3M melanoma): 2.84 µM | TGI (MALME-3M melanoma): 10.9 µM | GI50 (UO-31 renal): 2.56 µM | TGI (UO-31 renal): 11.2 µM | GI50 (SK-MEL-2 melanoma): 3.81 µM | TGI (SK-MEL-2 melanoma): 15.5 µM | GI50 (SF-268 CNS): 2.62 µM | TGI (SF-268 CNS): 10.4 µM | GI50 (DU-145 prostate): 2.39 µM | TGI (DU-145 prostate): 5.83 µM | GI50 (NCI/ADR-RES ovarian): 2.92 µM | TGI (NCI/ADR-RES ovarian): 10.9 µM | GI50 (U251 CNS): 1.86 µM | TGI (U251 CNS): 4.18 µM | GI50 (CAKI-1 renal): 3.27 µM | TGI (CAKI-1 renal): 11.9 µM

N#CCC(=O)N/N=C1/C(=O)N(c2cc(Cl)ccc2Cl)C(=O)C(=O)C1c1nc2ccccc2s1 (configuration not stated)
TGI (UACC-257 melanoma): > 100 µM | TGI (MALME-3M melanoma): > 100 µM | TGI (UO-31 renal): > 100 µM | TGI (SK-MEL-2 melanoma): > 100 µM | TGI (SF-268 CNS): > 100 µM | TGI (U251 CNS): > 100 µM | TGI (CAKI-1 renal): 94.4 µM

NC1CCCCC1N.O=C1C=C/C(=C(/c2ccc(O)c(Br)c2)c2ccccc2S(=O)(=O)[O-])C=C1Br.O=C1C=C/C(=C(/c2ccc(O)c(Br)c2)c2ccccc2S(=O)(=O)[O-])C=C1Br.[Pt+4]
GI50 (UACC-257 melanoma): 5.38 µM | TGI (UACC-257 melanoma): > 100 µM | GI50 (MALME-3M melanoma): 0.664 µM | TGI (MALME-3M melanoma): 21.3 µM | GI50 (UO-31 renal): 8.03 µM | TGI (UO-31 renal): > 100 µM | GI50 (SK-MEL-2 melanoma): 10.1 µM | TGI (SK-MEL-2 melanoma): > 100 µM | GI50 (SF-268 CNS): 0.885 µM | TGI (SF-268 CNS): > 100 µM | GI50 (U251 CNS): 5.21 µM | TGI (U251 CNS): > 100 µM

Reference: PubChem BioAssay (NCI)
